Legend:
[1] = system: AMPA receptors; test: Whole-cell patch-clamp, AMPA-induced currents in acutely isolated hippocampal neurons; format: cell-based, rat; conditions: 10 μM WZB117
Description: Hippocampal neurons were obtained from Sprague-Dawley rats (aged P7-14). Briefly, the isolated hippocampal tissues were cut into approximately […] slices along the sagittal plane and were digested with 3 mg/ml proteinase (Sigma-Aldrich) at 32°C for 8 min. Then 1 mg/ml bovine serum albumin (Sangon Biotech) and 1 mg/ml trypsin inhibitor (Sigma-Aldrich) were used to stop the digestion. A few slices of the hippocampus were gently blown into single cells with the dissecting solution, then transferred to a dish and left to rest for 20 min before experiments. The dishes were preprocessed. Essentially, the bottom of the dish was covered with discarded cell suspension the day before the experiment and was washed and dried the next day, which prevented the neurons from sticking to the bottom too tightly. The dissecting solution contained (in mM): 82 Na2SO4, 30 K2SO4, 5 MgCl2, 1 Na pyruvate, 10 HEPES, and 20 glucose. The pH was adjusted to 7.2 using NaOH ([Xie et al., 2020]).
Whole-cell patch-clamp recordings were performed at room temperature (22–25°C) using an EPC-10 amplifier and Patch Master Software (HEKA). Pipettes were pulled from borosilicate glass capillaries (World Precision Instruments), and the resistances were 3–5 MΩ when filled with the intracellular solution. […]

[2] = biological target: T1, GluN1/GluN2A (Homo sapiens, UniProt Q05586+Q12879); test: GluN1/GluN2A currents (data analyzed from Figure 3D, TEVC in Xenopus oocytes); format: cell-based; conditions: 30 μM WZB117
T1 construct: expressed in transfected cells; host or cells: Xenopus oocytes
Description: (§1) Two-electrode voltage-clamp (TEVC) recordings were performed on Xenopus oocytes expressing various subtypes of recombinant NMDARs. Each oocyte was injected with a mixture of 0.5–1.0 ng cDNAs or cRNAs encoding wild-type (WT) or mutant GluN1 (GluN1-1a or GluN1-4a) and GluN2 (2A-2D) or GluN3 (3A-3B) at a ratio of 1:1. The mutant GluN1-4a ^F484A/T518L was injected together with GluN3B to boost the currents of GluN1/GluN3B receptors, and WT GluN1-1a was used unless otherwise stated. The cRNAs of GluN1-4a, GluN3A and GluN3B were transcribed from corresponding DNAs using the mMESSAGE mMACHINE T7 Ultra kit (Life Technologies) according to the manufacturer’s instructions, and the others not specified were cDNAs. TEVC recording was performed 24–72 h post injection in extracellular solution containing (in mM): 100 NaCl, 0.3 BaCl2, 2.5 KCl, 0.01 DTPA and 5 HEPES, and the pH was adjusted to 7.3 using NaOH. All recordings were carried out at a holding potential of −60 mV.
Supplementary Figure S3 Effects of WZB117 on currents from HEK-293 cells co-expressing GluN1/GluN2A/GluN3A subunits. GluN1/GluN2A/GluN3A receptors were expressed on HEK-293 cells at a ratio of GluN1-EGFP: GluN2A: GluN3A = 1:1:2. The GluN1/GluN2A/GluN3A receptors were stimulated by 100 μM glutamate and 100 μM glycine. The data of GluN1/GluN2A were analyzed from Figure 3D. […]

[3] = system: GluN1/GluN2 (2A-2D) receptors; test: TEVC recording in Xenopus oocytes expressing GluN1/GluN2 (2A-2D); format: cell-based; conditions: 30 μM WZB117; 100 μM glycine and 100 μM glutamate coapplied
Description: as §1

[4] = biological target: GluN1/GluN3A receptors (UniProt Q05586+Q9R1M7); test: Whole-cell patch-clamp recording on GluN1/GluN3A Flp-in T-REx 293 stable cell lines; format: cell-based, human GluN1-1a, rat GluN3A; design: expressed in transfected cells
GluN1/GluN3A receptors, sequence (Q9R1M7 24-1135, other chains not shown): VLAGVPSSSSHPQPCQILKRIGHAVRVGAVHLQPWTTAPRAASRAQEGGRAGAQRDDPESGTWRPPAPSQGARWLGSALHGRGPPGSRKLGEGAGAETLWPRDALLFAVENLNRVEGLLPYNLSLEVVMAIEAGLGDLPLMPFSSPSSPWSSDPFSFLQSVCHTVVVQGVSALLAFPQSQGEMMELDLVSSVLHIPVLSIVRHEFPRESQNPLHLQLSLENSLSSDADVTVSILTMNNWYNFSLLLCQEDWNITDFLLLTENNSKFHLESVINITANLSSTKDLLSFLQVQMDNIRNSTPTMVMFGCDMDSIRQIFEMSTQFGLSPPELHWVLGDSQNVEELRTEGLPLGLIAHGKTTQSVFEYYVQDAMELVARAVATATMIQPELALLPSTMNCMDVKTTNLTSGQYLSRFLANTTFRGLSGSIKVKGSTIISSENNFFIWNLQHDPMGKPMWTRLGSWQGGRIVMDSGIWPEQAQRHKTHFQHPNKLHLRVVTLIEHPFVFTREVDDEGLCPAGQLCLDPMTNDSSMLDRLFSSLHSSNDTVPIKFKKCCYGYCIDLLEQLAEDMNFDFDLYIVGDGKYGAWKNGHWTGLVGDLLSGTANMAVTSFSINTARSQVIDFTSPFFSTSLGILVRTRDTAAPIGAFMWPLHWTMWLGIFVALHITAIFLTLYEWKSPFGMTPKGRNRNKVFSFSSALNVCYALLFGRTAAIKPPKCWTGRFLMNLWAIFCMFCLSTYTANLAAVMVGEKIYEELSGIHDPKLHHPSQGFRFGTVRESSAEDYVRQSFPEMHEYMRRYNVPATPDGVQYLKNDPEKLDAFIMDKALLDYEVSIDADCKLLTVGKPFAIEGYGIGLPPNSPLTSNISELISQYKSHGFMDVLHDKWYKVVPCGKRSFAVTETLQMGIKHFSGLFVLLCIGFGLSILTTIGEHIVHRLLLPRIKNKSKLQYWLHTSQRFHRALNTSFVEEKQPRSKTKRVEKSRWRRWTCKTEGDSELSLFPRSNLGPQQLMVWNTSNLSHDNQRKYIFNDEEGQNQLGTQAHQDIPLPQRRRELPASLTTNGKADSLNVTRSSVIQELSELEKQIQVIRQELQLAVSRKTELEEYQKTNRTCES

T1 sequence (Q12879 23-1464, other chains not shown): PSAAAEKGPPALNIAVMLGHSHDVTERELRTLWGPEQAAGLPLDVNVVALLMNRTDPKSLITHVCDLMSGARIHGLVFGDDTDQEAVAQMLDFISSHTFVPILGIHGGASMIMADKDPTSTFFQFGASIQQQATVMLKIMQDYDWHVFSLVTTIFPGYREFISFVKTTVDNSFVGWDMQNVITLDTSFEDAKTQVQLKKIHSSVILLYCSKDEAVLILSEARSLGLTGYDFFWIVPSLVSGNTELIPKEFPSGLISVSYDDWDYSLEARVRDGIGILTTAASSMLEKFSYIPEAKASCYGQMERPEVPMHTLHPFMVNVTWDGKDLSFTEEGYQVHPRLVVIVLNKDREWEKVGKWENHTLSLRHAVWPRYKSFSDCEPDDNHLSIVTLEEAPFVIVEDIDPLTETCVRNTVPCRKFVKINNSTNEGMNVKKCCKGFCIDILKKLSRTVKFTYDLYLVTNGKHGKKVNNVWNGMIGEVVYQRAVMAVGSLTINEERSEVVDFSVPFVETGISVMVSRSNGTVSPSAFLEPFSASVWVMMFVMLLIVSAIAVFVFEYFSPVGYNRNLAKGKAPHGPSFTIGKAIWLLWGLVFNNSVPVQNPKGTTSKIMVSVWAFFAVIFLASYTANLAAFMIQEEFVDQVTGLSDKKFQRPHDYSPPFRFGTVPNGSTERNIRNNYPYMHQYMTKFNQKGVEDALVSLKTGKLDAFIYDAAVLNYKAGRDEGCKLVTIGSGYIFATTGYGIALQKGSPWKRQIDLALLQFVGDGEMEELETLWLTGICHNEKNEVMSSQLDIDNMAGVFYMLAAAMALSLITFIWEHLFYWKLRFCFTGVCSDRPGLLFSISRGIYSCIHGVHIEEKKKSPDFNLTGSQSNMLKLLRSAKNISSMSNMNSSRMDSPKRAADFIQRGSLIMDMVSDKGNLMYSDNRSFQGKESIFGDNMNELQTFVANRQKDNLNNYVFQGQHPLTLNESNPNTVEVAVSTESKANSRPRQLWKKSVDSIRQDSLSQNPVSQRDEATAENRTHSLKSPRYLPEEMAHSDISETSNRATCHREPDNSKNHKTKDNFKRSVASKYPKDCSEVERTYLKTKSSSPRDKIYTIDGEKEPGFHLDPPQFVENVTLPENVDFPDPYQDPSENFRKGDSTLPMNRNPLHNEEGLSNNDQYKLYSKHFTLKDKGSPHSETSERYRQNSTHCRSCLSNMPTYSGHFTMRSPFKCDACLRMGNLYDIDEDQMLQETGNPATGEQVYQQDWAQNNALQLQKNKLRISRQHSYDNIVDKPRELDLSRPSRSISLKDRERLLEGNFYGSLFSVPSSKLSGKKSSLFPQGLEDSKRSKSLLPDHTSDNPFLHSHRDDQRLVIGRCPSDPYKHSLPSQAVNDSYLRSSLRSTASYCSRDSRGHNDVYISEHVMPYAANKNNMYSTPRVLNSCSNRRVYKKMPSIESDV

I drug/I cotrol [2]: 0.84 ± 0.01
inhibition of currents [3]: relatively weak inhibition
voltage-dependence of inhibition activity ([4]; 3 μM WZB117, +40 mV and −60 mV): no significant change
IC50 ([4]; pH 6.9): 1270 ± 390 nM
IC50 ([4]; pH 8.3): 1090 ± 220 nM
Structure (SMILES): O=C(Oc1cccc(F)c1OC(=O)c1cccc(O)c1)c1cccc(O)c1 [WZB117, 3-fluoro-1,2-phenylene bis(3-hydroxybenzoate)]
effect on AMPA-induced currents [1]: almost ineffective

From paper PMC9218946, “Identification of a Subtype-Selective Allosteric Inhibitor of GluN1/GluN3 NMDA Receptors” (Frontiers in Pharmacology, 2022)
